Source: US20240174634A1, “Aldehyde Dehydrogenase Inhibitors and Their Therapeutic Use” (priority 2020, published 2024)

Legend:
ALDH1A1 = target: T1, ALDH1A1 (Homo sapiens, UniProt P00352); experiment: Selectivity biochemical assay, NAD(P)H-Glo Detection System
T1 construct: His-tag; made in house; host or cells: E. coli Rosetta (DE3)
T1 sequence (P00352 1-501): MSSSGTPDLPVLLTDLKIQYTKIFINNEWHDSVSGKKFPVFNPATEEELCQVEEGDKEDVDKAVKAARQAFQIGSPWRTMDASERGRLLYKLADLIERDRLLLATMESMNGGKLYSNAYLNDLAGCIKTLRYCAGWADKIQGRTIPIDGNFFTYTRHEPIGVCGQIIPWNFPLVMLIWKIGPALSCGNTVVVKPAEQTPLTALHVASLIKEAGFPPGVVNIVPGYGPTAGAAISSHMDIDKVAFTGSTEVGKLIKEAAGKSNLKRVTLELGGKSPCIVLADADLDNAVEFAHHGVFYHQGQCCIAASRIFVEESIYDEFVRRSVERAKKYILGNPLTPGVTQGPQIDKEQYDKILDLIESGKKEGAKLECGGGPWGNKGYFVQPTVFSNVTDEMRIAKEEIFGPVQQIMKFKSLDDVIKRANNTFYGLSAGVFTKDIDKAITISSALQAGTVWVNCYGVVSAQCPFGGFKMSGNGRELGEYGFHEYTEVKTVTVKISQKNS
How it was run: (§1)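 Recombinant full-length His-tagged human enzymes expressed in E. coli were pre-incubated 30 min at room temperature with compound (10-point, 3-fold series; top 20 μM for ALDH1A3, 250 μM for ALDH1A1/1A2). Propionaldehyde and NAD were then added at Km; NADH was read by NAD(P)H-Glo luminescence. Buffer: Tris (pH 7.6 for 1A1/1A2, 9.0 for 1A3), 1 mM TCEP, 0.01% Tween-20.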

ALDH1A2 = target: T2, ALDH1A2 (Homo sapiens, UniProt O94788); experiment: as above
T2 construct: His-tag; made in house; host or cells: E. coli Rosetta (DE3)
T2 sequence (O94788 1-518): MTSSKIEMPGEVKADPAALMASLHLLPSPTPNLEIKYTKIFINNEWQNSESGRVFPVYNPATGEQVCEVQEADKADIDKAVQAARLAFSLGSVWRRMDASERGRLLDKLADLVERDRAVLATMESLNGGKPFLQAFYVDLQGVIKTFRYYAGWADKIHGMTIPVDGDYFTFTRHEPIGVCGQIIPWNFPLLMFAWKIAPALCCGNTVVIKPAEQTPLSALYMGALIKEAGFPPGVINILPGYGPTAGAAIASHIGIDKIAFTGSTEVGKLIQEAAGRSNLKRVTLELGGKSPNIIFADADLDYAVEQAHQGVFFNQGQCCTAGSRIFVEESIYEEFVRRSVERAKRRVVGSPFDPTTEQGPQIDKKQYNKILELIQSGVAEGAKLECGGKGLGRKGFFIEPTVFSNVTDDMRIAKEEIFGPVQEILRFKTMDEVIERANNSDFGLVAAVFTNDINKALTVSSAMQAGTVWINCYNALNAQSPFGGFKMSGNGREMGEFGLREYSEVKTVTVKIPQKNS
How it was run: as §1

`O=C1CCCc2cc(OCCN3CCCC3c3cccc(F)c3)ccc2N1` (centres unmarked) [ALDHI-2020, 7-[2-[2-(3-fluorophenyl)pyrrolidin-1-yl]ethoxy]-1,3,4,5-tetrahydro-1-benzazepin-2-one] was tested, and the IC50 (ALDH1A1) was ≥ 100 µM and the IC50 (ALDH1A2) was 1 to 10 µM.

`O=C1CCc2cc(OCCN3CCC3c3cccc(F)c3)ccc2N1` (centres unmarked) [ALDHI-2021, 6-[2-[2-(3-fluorophenyl)azetidin-1-yl]ethoxy]-3,4-dihydro-1H-quinolin-2-one] was tested, and the IC50 (ALDH1A1) was ≥ 100 µM and the IC50 (ALDH1A2) was 1 to 10 µM.

For `O=c1ccc2cc(OCCN3CCCC3c3cccc(F)c3)ccc2[nH]1` (centres unmarked) [ALDHI-2022, 6-[2-[2-(3-fluorophenyl)pyrrolidin-1-yl]ethoxy]-1H-quinolin-2-one], the IC50 (ALDH1A1) was ≥ 100 µM and the IC50 (ALDH1A2) was 1 to 10 µM.

In the case of `O=C1CCc2cc(OCCn3nccc3-c3cccc(F)c3)ccc2N1` [ALDHI-2023, 6-[2-[5-(3-fluorophenyl)pyrazol-1-yl]ethoxy]-3,4-dihydro-1H-quinolin-2-one], the IC50 (ALDH1A1) is reported as ≥ 100 µM and the IC50 (ALDH1A2) is reported as < 0.1 µM.

In the case of `Cn1cc(C2CCCN2CCOc2ccc3c(c2)SCC(=O)N3)cn1` (centres unmarked) [ALDHI-2026, 7-[2-[2-(1-methylpyrazol-4-yl)pyrrolidin-1-yl]ethoxy]-4H-1,4-benzothiazin-3-one], the IC50 (ALDH1A1) is reported as ≥ 100 µM and the IC50 (ALDH1A2) is reported as ≥ 100 µM.

With `O=C1CSc2cc(OCCN3CCCC3c3ccccn3)ccc2N1` (centres unmarked) [ALDHI-2027, 7-[2-[2-(2-pyridyl)pyrrolidin-1-yl]ethoxy]-4H-1,4-benzothiazin-3-one] the IC50 (ALDH1A1) was ≥ 100 µM and the IC50 (ALDH1A2) was 10 to 100 µM.

`O=C1CSc2cc(OCCN3CCCC3c3cccnc3)ccc2N1` (centres unmarked) [ALDHI-2028, 7-[2-[2-(3-pyridyl)pyrrolidin-1-yl]ethoxy]-4H-1,4-benzothiazin-3-one] was tested, and the IC50 (ALDH1A1) was ≥ 100 µM and the IC50 (ALDH1A2) was ≥ 100 µM.

`O=C1CSc2cc(OCCN3CCCC3c3ccncc3)ccc2N1` (centres unmarked) [ALDHI-2029, 7-[2-[2-(4-pyridyl)pyrrolidin-1-yl]ethoxy]-4H-1,4-benzothiazin-3-one] was tested, and the IC50 (ALDH1A1) was ≥ 100 µM and the IC50 (ALDH1A2) was 10 to 100 µM.

For `Cc1ccc(C2CCCN2CCOc2ccc3c(c2)CCC(=O)N3)cn1` (centres unmarked) [ALDHI-2030, 6-[2-[2-(6-methyl-3-pyridyl)pyrrolidin-1-yl]ethoxy]-3,4-dihydro-1H-quinolin-2-one], the IC50 (ALDH1A1) was ≥ 100 µM and the IC50 (ALDH1A2) was 10 to 100 µM.

With `O=C1CCc2cc(OCCN3CCOCC3c3cccc(F)c3)ccc2N1` (centres unmarked) [ALDHI-2031, 6-[2-[3-(3-fluorophenyl)morpholin-4-yl]ethoxy]-3,4-dihydro-1H-quinolin-2-one] the IC50 (ALDH1A1) was ≥ 100 µM and the IC50 (ALDH1A2) was 0.1 to 1 µM.

With `O=C1CCc2cc(OCCN3CCCC3c3cc(F)cc(F)c3)ccc2N1` (centres unmarked) [ALDHI-2032, 6-[2-[2-(3,5-difluorophenyl)pyrrolidin-1-yl]ethoxy]-3,4-dihydro-1H-quinolin-2-one] the IC50 (ALDH1A1) was 10 to 100 µM and the IC50 (ALDH1A2) was 0.1 to 1 µM.

In the case of `Cc1nc(C2CCCN2CCOc2ccc3c(c2)CCC(=O)N3)cs1` (centres unmarked) [ALDHI-2033, 6-[2-[2-(2-methylthiazol-4-yl)pyrrolidin-1-yl]ethoxy]-3,4-dihydro-1H-quinolin-2-one], the IC50 (ALDH1A1) is reported as ≥ 100 µM and the IC50 (ALDH1A2) is reported as ≥ 100 µM.

With `COc1cccc(C2CCCN2CCOc2ccc3c(c2)CCC(=O)N3)c1` (centres unmarked) [ALDHI-2034, 6-[2-[2-(3-methoxyphenyl)pyrrolidin-1-yl]ethoxy]-3,4-dihydro-1H-quinolin-2-one] the IC50 (ALDH1A1) was ≥ 100 µM and the IC50 (ALDH1A2) was 10 to 100 µM.

In the case of `CC1(c2cccc(F)c2)CCCN1CCOc1ccc2c(c1)CCC(=O)N2` (centres unmarked) [ALDHI-2037, 6-[2-[2-(3-fluorophenyl)-2-methyl-pyrrolidin-1-yl]ethoxy]-3,4-dihydro-1H-quinolin-2-one], the IC50 (ALDH1A1) is reported as ≥ 100 µM and the IC50 (ALDH1A2) is reported as 0.1 to 1 µM.

`O=C1CCc2cc(OCCN3CCCCC3c3cccc(F)c3)ccc2N1` (centres unmarked) [ALDHI-2038, 6-[2-[2-(3-fluorophenyl)-1-piperidyl]ethoxy]-3,4-dihydro-1H-quinolin-2-one] showed an IC50 (ALDH1A1) of 10 to 100 µM and an IC50 (ALDH1A2) of 1 to 10 µM.

In the case of `O=C1CCc2cc(OCCN3CCCC3c3ccc(F)c(F)c3)ccc2N1` (centres unmarked) [ALDHI-2039, 6-[2-[2-(3,4-difluorophenyl)pyrrolidin-1-yl]ethoxy]-3,4-dihydro-1H-quinolin-2-one], the IC50 (ALDH1A1) is reported as 1 to 10 µM and the IC50 (ALDH1A2) is reported as 1 to 10 µM.
